The subject of the test is IL-13 induced pSTAT6 in BEAS-2B human cell line. In words: Inhibition of IL-13 induced pSTAT6 in BEAS. It counts as cell-based. The following applies: IL-13 induced pSTAT6, BEAS-2B cells, ELISA. Summed up: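 BEAS-2B cells, cultured 48 h, were pretreated with compounds 30 min, then stimulated with IL-13 for 30 min. Phospho-STAT6 (Tyr641) in lysates quantified by sandwich ELISA; 11-point 5-fold series from 10 μM […], duplicate, IC50 fitted with QC (Z′≥0.35, Hill slope 0.5-5, S:B>2).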
In turn, `COc1cc2[nH]c(=O)oc2cc1-n1nc(NCCN2CCOCC2)c2cnc(-c3cnn4cccnc34)cc21` [Example 72, 5-methoxy-6-(3-((2-morpholinoethyl)amino)-6-(pyrazolo[1,5-a]pyrimidin-3-yl)-1H-pyrazolo[4,3-c]pyridin-1-yl)benzo[d]oxazol-2(3H)-one] had an IC50 of 50.1 to 501 nM.
`COc1cc2c(cc1-n1nc(C(=O)NCCCN(C)C)c3cnc(-c4cnc5cccnn45)cc31)OCCN2` [Example 73, N-(3-(dimethylamino)propyl)-6-(imidazo[1,2-b]pyridazin-3-yl)-1-(6-methoxy-3,4-dihydro-2H-benzo[b][1,4]oxazin-7-yl)-1H-pyrazolo[4,3-c]pyridine-3-carboxamide] gave an IC50 of 5.01 to 50.1 nM.
Molecule `COc1cc2c(cc1-n1nc(NCCN(C)C)c3cnc(Nc4ncc[nH]c4=O)cc31)OCCN2` [Example 74, 3-((3-((2-(dimethylamino)ethyl)amino)-1-(6-methoxy-3,4-dihydro-2H-benzo[b][1,4]oxazin-7-yl)-1H-pyrazolo[4,3-c]pyridin-6-yl)amino)pyrazin-2(1H)-one] showed an IC50 of 50.1 to 501 nM.
Molecule `COc1cc2c(cc1-n1nc(C(=O)NCCCN(C)C)c3cnc(Nc4ncc[nH]c4=O)cc31)OCCN2` [Example 75, N-(3-(dimethylamino)propyl)-1-(6-methoxy-3,4-dihydro-2H-benzo[b][1,4]oxazin-7-yl)-6-((3-oxo-3,4-dihydropyrazin-2-yl)amino)-1H-pyrazolo[4,3-c]pyridine-3-carboxamide] had an IC50 of 50.1 to 501 nM.
Turning to `COc1cc2c(cc1-n1nc(C(=O)NCCCN3CCC(F)(F)CC3)c3cnc(Nc4ncc[nH]c4=O)cc31)OCCN2` [Example 76, N-(3-(4,4-difluoropiperidin-1-yl)propyl)-1-(6-methoxy-3,4-dihydro-2H-benzo[b][1,4]oxazin-7-yl)-6-((3-oxo-3,4-dihydropyrazin-2-yl)amino)-1H-pyrazolo[4,3-c]pyridine-3-carboxamide], the IC50 is 5.01 to 50.1 nM.
With `COc1cc2c(cc1-n1nc(C(=O)NCCN3CC(=O)OC(C)(C)C3)c3cnc(-c4cnn5cccnc45)cc31)OCCN2` [Example 77, N-(2-(2,2-dimethyl-6-oxomorpholino)ethyl)-1-(6-methoxy-3,4-dihydro-2H-benzo[b][1,4]oxazin-7-yl)-6-(pyrazolo[1,5-a]pyrimidin-3-yl)-1H-pyrazolo[4,3-c]pyridine-3-carboxamide] the figure was 5.01 to 50.1 nM; with `CN(C)CCCNC(=O)c1nn(-c2cc3c(cc2OC(F)F)NCCO3)c2cc(-c3cnn4cccnc34)ncc12` [Example 78, 1-(6-(difluoromethoxy)-3,4-dihydro-2H-benzo[b][1,4]oxazin-7-yl)-N-(3-(dimethylamino)propyl)-6-(pyrazolo[1,5-a]pyrimidin-3-yl)-1H-pyrazolo[4,3-c]pyridine-3-carboxamide], 5.01 to 50.1 nM.
As for `COc1cc2c(cc1-n1nc(C(=O)NCCN3CCC(C(N)=O)CC3)c3cnc(-c4cnn5cccnc45)cc31)OCCN2` [Example 79, N-(2-(4-carbamoylpiperidin-1-yl)ethyl)-1-(6-methoxy-3,4-dihydro-2H-benzo[b][1,4]oxazin-7-yl)-6-(pyrazolo[1,5-a]pyrimidin-3-yl)-1H-pyrazolo[4,3-c]pyridine-3-carboxamide], the IC50 is 50.1 to 501 nM.
With `COc1cc2c(cc1-n1nc(C(=O)NCCN3CC[C@@H](C(N)=O)C3)c3cnc(-c4cnn5cccnc45)cc31)OCCN2` [Example 80, (R)-N-(2-(3-carbamoylpyrrolidin-1-yl)ethyl)-1-(6-methoxy-3,4-dihydro-2H-benzo[b][1,4]oxazin-7-yl)-6-(pyrazolo[1,5-a]pyrimidin-3-yl)-1H-pyrazolo[4,3-c]pyridine-3-carboxamide], the IC50 was 50.1 to 501 nM.
In the case of `COc1cc2c(cc1-n1nc(C(=O)NCCN3CC4(COC(=O)C4)C3)c3cnc(-c4cnn5cccnc45)cc31)OCCN2` [Example 81, 1-(6-methoxy-3,4-dihydro-2H-benzo[b][1,4]oxazin-7-yl)-N-(2-(7-oxo-6-oxa-2-azaspiro[3.4]octan-2-yl)ethyl)-6-(pyrazolo[1,5-a]pyrimidin-3-yl)-1H-pyrazolo[4,3-c]pyridine-3-carboxamide], the IC50 was 5.01 to 50.1 nM.
`COc1cc2c(cc1-n1nc(C(=O)NCCN3CCC4(COC4)C3)c3cnc(-c4cnn5cccnc45)cc31)OCCN2` [Example 82, N-(2-(2-oxa-6-azaspiro[3.4]octan-6-yl)ethyl)-1-(6-methoxy-3,4-dihydro-2H-benzo[b][1,4]oxazin-7-yl)-6-(pyrazolo[1,5-a]pyrimidin-3-yl)-1H-pyrazolo[4,3-c]pyridine-3-carboxamide] had an IC50 of 5.01 to 50.1 nM.
`COc1cc2c(cc1-n1nc(C(=O)NCCN3CC(=O)OC(C)C3)c3cnc(-c4cnn5cccnc45)cc31)OCCN2` (stereo not drawn) [Example 83, 1-(6-methoxy-3,4-dihydro-2H-benzo[b][1,4]oxazin-7-yl)-N-(2-(2-methyl-6-oxomorpholino)ethyl)-6-(pyrazolo[1,5-a]pyrimidin-3-yl)-1H-pyrazolo[4,3-c]pyridine-3-carboxamide] had an IC50 of 50.1 to 501 nM.
The molecule `COc1cc2c(cc1-n1nc(NC(=O)C3CCN(C)CC3)c3cnc(-c4cnn5cccnc45)cc31)OCCN2` [Example 84, N-(1-(6-methoxy-3,4-dihydro-2H-benzo[b][1,4]oxazin-7-yl)-6-(pyrazolo[1,5-a]pyrimidin-3-yl)-1H-pyrazolo[4,3-c]pyridin-3-yl)-1-methylpiperidine-4-carboxamide] had an IC50 of 5.01 to 50.1 nM.
In the case of `COc1cc2c(cc1-n1nc(C(=O)NCCN3CCC(C4(O)COC4)CC3)c3cnc(-c4cnn5cccnc45)cc31)OCCN2` [Example 85, N-(2-(4-(3-hydroxyoxetan-3-yl)piperidin-1-yl)ethyl)-1-(6-methoxy-3,4-dihydro-2H-benzo[b][1,4]oxazin-7-yl)-6-(pyrazolo[1,5-a]pyrimidin-3-yl)-1H-pyrazolo[4,3-c]pyridine-3-carboxamide], the IC50 was 5.01 to 50.1 nM.
As for `COc1cc2c(cc1-n1nc(NC(=O)OCCSC3CCOC3=O)c3cnc(-c4cnn5cccnc45)cc31)CCCN2` (stereo not drawn) [Example 86, 2-((2-oxotetrahydrofuran-3-yl)thio)ethyl (1-(7-methoxy-1,2,3,4-tetrahydroquinolin-6-yl)-6-(pyrazolo[1,5-a]pyrimidin-3-yl)-1H-pyrazolo[4,3-c]pyridin-3-yl)carbamate], the IC50 was 5.01 to 50.1 nM.

Source of the values: US20260085077A1, “HETEROCYCLIC DERIVATIVES AS JANUS KINASE INHIBITORS” (CHIESI FARMACEUTICI S.P.A., priority 2022, published 2026).
